Patent US20260152501A1, “CYCLIN MODULATOR” (EUBULUS BIOTHERAPEUTICS (HONG KONG) LIMITED, priority 2022, published 2026)

Experiments:
Cyclin K = assay: Immunohistochemistry (IHC) staining of Cyclin K in HepG2 cells; assay type: cell-based; details: incubated with compound 2 hours, CCNK antibody
Procedure: Appropriate amount of compounds were added to the cultured cells. The cells were incubated in a tissue culture incubator at 37° C. for 2 hours.
After washing the cultured cells twice with PBS, 100 μL 10% neutral buffered formalin were added and the cells were fixed for 20 minutes.
After washing 3 times with PBS, immunohistochemical staining was performed using CCNK antibody and general two-step detection kit (mouse/rabbit enhanced polymer detection system, PV-9000, Zsbio Inc, Beijing).
Specifically, 100 μL of endogenous peroxidase blocker in the kit was added, cells were incubated at room temperature for 10 minutes; rinsed with PBS buffer for 3 minutes×3 times.
100 μL CCNK antibody 1:5000 dilution was added, and the cells were incubated at 37° C. for 60 minutes; rinsed with PBS buffer for 3 minutes×3 times.
100 μL reaction enhancer was added, and the cells were incubated at 37° C. for 20 minutes; rinsed with PBS buffer for 3 minutes×3 times.
100 μL enhanced enzyme-labeled goat anti-mouse/rabbit IgG polymer was added, and the cells were incubated at 37° C. for 20 minutes; rinsed with PBS buffer for 3 minutes×3 times.
The cells were placed in 75% ethanol, soaked for 3 minutes×2 times; placed in 95% ethanol, soaked for 3 minutes×2 times; after removing excess liquid, placed in anhydrous ethanol, soaked for 3 minutes×3 times; after removing excess liquid, air dried, observed under a microscope and taken pictures after sealing.

HepG2 cells = assay: Antiproliferative effect on HepG2 cells; assay type: cell-based; details: Homo sapiens
Procedure: Reagents: RPMI-1640 medium, McCoy's 5A medium, IMDM medium, MEM medium, L-15 medium, fetal bovine serum, Penicillin-Streptomycin double antibody, trypsin, etc., 2-mercaptoethanol, NEAA, pyruvate, etc.
The test cells were cultured in conventional ways, and the cells should be passed for at least 2 generations before plating.
All cells were subjected to IC50 test for corresponding samples.
The fluorescence intensity of each well was detected using the Alarm blue method, and EC50 was calculated.
IC50 was calculated according to the following formula:
[formula] • wherein, Min, Max and Slope represent the minimum, maximum and slope respectively.

SMILES | Cyclin K IHC data of HepG2 cells (Cyclin K) | IC50 (HepG2 cells) [nM]
CC(C)n1cnc2c(NCc3ccc(-c4ccccc4O)cc3)nc(N3CCNCC3)nc21 [UB-046, 4′-(((9-isopropyl-2-(piperazin-1-yl)-9H-purin-6-yl)amino)methyl)-[1,1′-biphenyl]-2-ol] | D (D > 278 nM) | 100 to 300
CCCOc1ccccc1-c1ccc(CNc2nc(N3CCNCC3)nc3c2ncn3C(C)C)cc1 [UB-049, 9-isopropyl-2-(piperazin-1-yl)-N-((2′-propoxy-[1,1′-biphenyl]-4-yl)methyl)-9H-purin-6-amine] | D (D > 278 nM) | 100 to 300
CC(C)n1cnc2c(NCc3ccc(-c4ccccc4)c(OCCO)c3)nc(N3CCNCC3)nc21 [UB-043, 2-((4-(((9-isopropyl-2-(piperazin-1-yl)-9H-purin-6-yl)amino)methyl)-[1,1′-biphenyl]-2-yl)oxy)ethanol] | D (D > 278 nM) | 100 to 300
CC(C)n1cnc2c(NCc3ccc(-c4ccccc4)cc3)nc(N3CCNC[C@H]3C)nc21 [UB-020, (R)-N-([1,1′-biphenyl]-4-ylmethyl)-9-isopropyl-2-(2-methylpiperazin-1-yl)-9H-purin-6-amine] | B (31 nM < B <= 93 nM) | < 50
CC(C)n1cnc2c(NCc3ccc(-c4ccccc4OCCCCO)cc3)nc(N3CCNCC3)nc21 [UB-050, 4-((4′-(((9-isopropyl-2-(piperazin-1-yl)-9H-purin-6-yl)amino)methyl)-[1,1′-biphenyl]-2-yl)oxy)butan-1-ol] | D (D > 278 nM) | 100 to 300
CC(C)n1cnc2c(NCc3ccc(-c4ccccc4)c(OCCN)c3)nc(N3CCNCC3)nc21 [UB-062, N-((2-(2-aminoethoxy)-[1,l′-biphenyl]-4-yl)methyl)-9-isopropyl-2-(piperazin-1-yl)-9H-purin-6-amine] | D (D > 278 nM) | > 300
CC(C)n1cnc2c(NCc3ccc(-c4ccccc4)cc3)nc(OC[C@H]3CNCCN3)nc21 [UB-034, (R)-N-([1,1′-biphenyl]-4-ylmethyl)-9-isopropyl-2-(piperazin-2-ylmethoxy)-9H-purin-6-amine] | C (93 nM < C <= 278 nM) | 50 to 100
Cn1cc(-n2cnc3c(NCc4ccc(-c5ccccc5)cc4)nc(N4CCNCC4)nc32)cn1 [UB-055, N-([1,1′-biphenyl]-4-ylmethyl)-9-(1-methyl-1H-pyrazol-4-yl)-2-(piperazin-1-yl)-9H-purin-6-amine] | D (D > 278 nM) | > 300
CC(C)n1cnc2c(NCc3ccc(-c4ccccc4)cc3)nc(N3CCNC[C@@H]3C)nc21 [UB-021, (S)-N-([1,1′-biphenyl]-4-ylmethyl)-9-isopropyl-2-(2-methylpiperazin-1-yl)-9H-purin-6-amine] | C (93 nM < C <= 278 nM) | 50 to 100
c1ccc(-c2ccc(CNc3nc(N4CCNCC4)nc4c3ncn4C3CCC3)cc2)cc1 [UB-052, N-([1,l′-biphenyl]-4-ylmethyl)-9-cyclobutyl-2-(piperazin-1-yl)-9H-purin-6-amine] | C (93 nM < C <= 278 nM) | < 50
CC(C)n1cnc2c(NCc3ccc(-c4ccccc4)cc3)nc(N[C@H]3CCNC3)nc21 [UB-037, (S)-N6-([1,1′-biphenyl]-4-ylmethyl)-9-isopropyl-N2-(pyrrolidin-3-yl)-9H-purin-2,6-diamine] | C (93 nM < C <= 278 nM) | < 50
CC(C)n1cnc2c(NCc3ccc(-c4ccccc4OCCN)cc3)nc(N3CCNCC3)nc21 [UB-048, N-((2′-(2-aminoethoxy)-[1,1′-biphenyl]-4-yl)methyl)-9-isopropyl-2-(piperazin-1-yl)-9H-purin-6-amine] | D (D > 278 nM) | > 300
CCCOc1cc(CNc2nc(N3CCNCC3)nc3c2ncn3C(C)C)ccc1-c1ccccc1 [UB-044, 9-isopropyl-2-(piperazin-1-yl)-N-((2-propoxy-[1,1′-biphenyl]-4-yl)methyl)-9H-purin-6-amine] | D (D > 278 nM) | > 300
CC(C)n1cnc2c(NCc3ccc(-c4ccccc4OCCCC#N)cc3)nc(N3CCNCC3)nc21 [UB-051, 4-((4′-(((9-isopropyl-2-(piperazin-1-yl)-9H-purin-6-yl)amino)methyl)-[1,1′-biphenyl]-2-yl)oxy)butyronitrile] | D (D > 278 nM) | 100 to 300
CC(C)n1cnc2c(NCc3ccc(-c4ccccc4)cc3)nc(N[C@H]3C[C@@H](N)C3)nc21 [UB-041, N6-([1,1′-biphenyl]-4-yl-methyl)-N2-((1s,3s)-3-aminocyclobutyl)-9-isopropyl-9H-purin-2,6-diamine] | C (93 nM < C <= 278 nM) | < 50
CC(C)n1cnc2c(NCc3ccc(-c4ccccc4)c(O)c3)nc(N3CCNCC3)nc21 [UB-042] | B (31 nM < B <= 93 nM) | < 50
CC(C)n1cnc2c(NCc3ccc(-c4ccccc4)cc3)nc(N[C@H]3C[C@H](N)C3)nc21 [UB-061, N6-([1,1′-biphenyl]-4-yl-methyl)-N2-((1r,3r)-3-aminocyclobutyl)-9-isopropyl-9H-purin-2,6-diamine] | B (31 nM < B <= 93 nM) | < 50
CC(C)n1cnc2c(NCc3ccc(-c4ccccc4)cc3)nc(N3CCN[C@@H](C)C3)nc21 [UB-026, (S)-N-([1,1′-biphenyl]-4-ylmethyl)-9-isopropyl-2-(3-methylpiperazin-1-yl)-9H-purin-6-amine] | B (31 nM < B <= 93 nM) | < 50
CC(C)n1cnc2c(NCc3ccc(-c4ccccc4)cc3)nc(N[C@H]3CC[C@H](N)C3)nc21 [UB-040, N6-([1,1′-biphenyl]-4-yl-methyl)-N2-((1S,3S)-3-aminocyclopentyl)-9-isopropyl-9H-purin-2,6-diamine] | B (31 nM < B <= 93 nM) | < 50
CC(C)n1cnc2c(NCc3ccc(-c4ccccc4)c(OCCCC#N)c3)nc(N3CCNCC3)nc21 [UB-063, 4-((4-(((9-isopropyl-2-(piperazin-1-yl)-9H-purin-6-yl)amino)methyl)-[1,1′-biphenyl]-2-yl)oxy)butyronitrile] | D (D > 278 nM) | 100 to 300
CC(C)n1cnc2c(NCc3ccc(-c4ccccc4)cc3)nc(N[C@H]3CC[C@@H](N)C3)nc21 [UB-039, N6-([1,1′-biphenyl]-4-yl-methyl)-N2-((1S,3R)-3-aminocyclopentyl)-9-isopropyl-9H-purin-2,6-diamine] | C (93 nM < C <= 278 nM) | 50 to 100
CC(C)n1cnc2c(NCc3ccc(-c4ccccc4)cc3)nc(N[C@@H]3CCNC3)nc21 [UB-038, (R)-N6-([1,1′-biphenyl]-4-ylmethyl)-9-isopropyl-N2-(pyrrolidin-3-yl)-9H-purin-2,6-diamine] | C (93 nM < C <= 278 nM) | < 50
CC(C)n1cnc2c(NCc3ccc(-c4ccccc4)cc3)nc(N3CCN[C@H](C)C3)nc21 [UB-027, (R)-N-([1,1′-biphenyl]-4-ylmethyl)-9-isopropyl-2-(3-methylpiperazin-1-yl)-9H-purin-6-amine] | A (A <= 31 nM) | < 50
CC(C)n1cnc2c(NCc3ccc(-c4ccccc4)c(OCCCCO)c3)nc(N3CCNCC3)nc21 [UB-045, 4-((4-(((9-isopropyl-2-(piperazin-1-yl)-9H-purin-6-yl)amino)methyl)-[1,1′-biphenyl]-2-yl)oxy)butan-1-ol] | D (D > 278 nM) | > 300
CC(C)n1cnc2c(NCc3ccc(-c4ccccc4)cc3)nc(OC[C@@H]3CNCCN3)nc21 [UB-033, (S)-N-([1,l′-biphenyl]-4-ylmethyl)-9-isopropyl-2-(piperazin-2-ylmethoxy)-9H-purin-6-amine] | C (93 nM < C <= 278 nM) | 50 to 100
c1ccc(-c2ccc(CNc3nc(N4CCNCC4)nc4c3ncn4-c3ccccc3)cc2)cc1 [UB-053, N-([1,1′-biphenyl]-4-ylmethyl)-9-phenyl-2-(piperazin-1-yl)-9H-purin-6-amine] | D (D > 278 nM) | > 300
CC(C)n1cnc2c(NCc3ccc(-c4ccccc4)cc3)nc(N3CCNC[C@@H]3CO)nc21 [UB-023, (R)-(1-(6-(([1,1′-biphenyl]-4-ylmethyl)amino)-9-isopropyl-9H-purin-2-yl)piperazin-2-yl) methanol] | C (93 nM < C <= 278 nM) | 50 to 100
